Laboratory results: publication PMC5974041, “Functional Studies of Sex Pheromone Receptors in Asian Corn Borer Ostrinia furnacalis” (Frontiers in Physiology, 2018)

What was measured:
Assay in all cases: two-electrode voltage clamp, Xenopus oocytes
Format in all cases: cell-based
Conditions in all cases: pH 7.6 Ringer's buffer, -80 mV, co-expressed OfurOrco, agonist
[1] = biological target: T1, OfurOR5b (Ostrinia furnacalis, UniProt M4NPQ0)
T1 construct: gene OR5b; full-length ORF from male antennal cDNA, untagged, in PT7TS; cRNA co-injected 1:1 with OfurOrco in Xenopus oocytes; with Odorant receptor co-receptor (Orco)
T1 sequence (M4NPQ0 1-424): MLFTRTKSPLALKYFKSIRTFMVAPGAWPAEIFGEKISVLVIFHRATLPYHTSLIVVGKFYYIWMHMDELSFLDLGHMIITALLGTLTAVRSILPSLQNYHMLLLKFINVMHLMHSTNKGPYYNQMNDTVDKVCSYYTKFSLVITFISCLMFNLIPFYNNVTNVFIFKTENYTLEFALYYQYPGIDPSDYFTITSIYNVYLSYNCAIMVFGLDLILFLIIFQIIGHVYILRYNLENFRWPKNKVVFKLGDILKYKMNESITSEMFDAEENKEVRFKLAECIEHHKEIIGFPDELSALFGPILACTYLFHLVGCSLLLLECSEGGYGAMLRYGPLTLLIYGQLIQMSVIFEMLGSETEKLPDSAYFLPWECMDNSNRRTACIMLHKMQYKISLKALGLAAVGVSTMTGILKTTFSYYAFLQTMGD
T1 sequence (A0A0E4B591 1-474 partner): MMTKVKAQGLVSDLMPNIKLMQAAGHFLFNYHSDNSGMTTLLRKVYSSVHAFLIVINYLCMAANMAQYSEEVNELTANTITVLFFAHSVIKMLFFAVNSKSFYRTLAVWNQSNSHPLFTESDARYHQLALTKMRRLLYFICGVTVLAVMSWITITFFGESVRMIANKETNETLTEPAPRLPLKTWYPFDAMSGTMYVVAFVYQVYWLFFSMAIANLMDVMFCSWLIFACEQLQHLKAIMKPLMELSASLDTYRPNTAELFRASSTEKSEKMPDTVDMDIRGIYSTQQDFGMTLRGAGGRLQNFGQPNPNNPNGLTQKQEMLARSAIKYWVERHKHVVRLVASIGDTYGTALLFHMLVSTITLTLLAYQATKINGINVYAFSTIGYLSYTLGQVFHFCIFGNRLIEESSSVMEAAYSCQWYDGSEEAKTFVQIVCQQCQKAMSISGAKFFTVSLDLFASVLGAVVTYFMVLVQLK

[2] = biological target: T2, OfurOR7 (Ostrinia furnacalis, UniProt M4NKX7)
T2 construct: gene OR7; full-length ORF from male antennal cDNA, untagged, in PT7TS; cRNA co-injected 1:1 with OfurOrco in Xenopus oocytes; naming of Yang et al. 2015; with Odorant receptor co-receptor (Orco)
T2 sequence (M4NKX7 1-428): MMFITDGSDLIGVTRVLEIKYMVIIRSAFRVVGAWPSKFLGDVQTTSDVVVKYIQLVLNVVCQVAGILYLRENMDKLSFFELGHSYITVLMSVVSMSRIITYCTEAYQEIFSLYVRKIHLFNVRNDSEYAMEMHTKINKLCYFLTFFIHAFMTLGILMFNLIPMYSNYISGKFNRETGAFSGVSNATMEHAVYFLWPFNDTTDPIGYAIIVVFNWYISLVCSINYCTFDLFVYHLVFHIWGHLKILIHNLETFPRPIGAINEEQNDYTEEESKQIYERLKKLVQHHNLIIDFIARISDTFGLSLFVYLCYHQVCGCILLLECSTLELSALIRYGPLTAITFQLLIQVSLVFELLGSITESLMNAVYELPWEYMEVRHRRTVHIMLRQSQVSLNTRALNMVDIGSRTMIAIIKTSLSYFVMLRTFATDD
T2 sequence (A0A0E4B591 1-474 partner): T1 sequence (A0A0E4B591 1-474 partner)

[3] = biological target: T3, OfurOR4 (Ostrinia furnacalis, UniProt A0A0E3VLP9)
T3 construct: gene OR4; full-length ORF from male antennal cDNA, untagged, in PT7TS; cRNA co-injected 1:1 with OfurOrco in Xenopus oocytes; naming of Yang et al. 2015 (group OR4 = OnubOR3 of Wanner/Leary); with Odorant receptor co-receptor (Orco)
T3 sequence (A0A0E3VLP9 1-422): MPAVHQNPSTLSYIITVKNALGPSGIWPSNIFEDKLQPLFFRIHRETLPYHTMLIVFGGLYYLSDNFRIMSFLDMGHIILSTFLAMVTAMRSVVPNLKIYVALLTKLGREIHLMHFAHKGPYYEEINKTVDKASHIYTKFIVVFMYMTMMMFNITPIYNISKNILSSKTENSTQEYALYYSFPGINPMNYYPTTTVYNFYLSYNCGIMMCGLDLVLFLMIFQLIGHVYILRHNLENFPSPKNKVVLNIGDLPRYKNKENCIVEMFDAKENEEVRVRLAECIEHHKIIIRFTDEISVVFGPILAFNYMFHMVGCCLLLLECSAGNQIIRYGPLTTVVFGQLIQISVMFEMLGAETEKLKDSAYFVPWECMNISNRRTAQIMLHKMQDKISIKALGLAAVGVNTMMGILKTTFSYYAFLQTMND
T3 sequence (A0A0E4B591 1-474 partner): T1 sequence (A0A0E4B591 1-474 partner)

[4] = biological target: T4, OfurOR8 (Ostrinia furnacalis, UniProt A0A0E4B5G7)
T4 construct: gene OR8; full-length ORF from male antennal cDNA, untagged, in PT7TS; cRNA co-injected 1:1 with OfurOrco in Xenopus oocytes; naming of Yang et al. 2015; with Odorant receptor co-receptor (Orco)
T4 sequence (A0A0E4B5G7 1-437): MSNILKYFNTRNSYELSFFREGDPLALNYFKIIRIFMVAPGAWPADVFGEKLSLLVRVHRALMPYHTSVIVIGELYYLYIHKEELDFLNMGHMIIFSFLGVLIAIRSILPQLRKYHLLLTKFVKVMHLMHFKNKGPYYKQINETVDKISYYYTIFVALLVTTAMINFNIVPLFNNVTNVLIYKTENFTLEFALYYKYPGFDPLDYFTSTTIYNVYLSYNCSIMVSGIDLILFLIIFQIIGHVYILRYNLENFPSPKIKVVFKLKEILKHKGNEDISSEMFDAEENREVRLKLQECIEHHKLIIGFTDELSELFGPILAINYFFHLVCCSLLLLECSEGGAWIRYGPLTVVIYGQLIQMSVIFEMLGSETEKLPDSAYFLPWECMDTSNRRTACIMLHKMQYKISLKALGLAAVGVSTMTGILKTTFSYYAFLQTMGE
T4 sequence (A0A0E4B591 1-474 partner): T1 sequence (A0A0E4B591 1-474 partner)

[5] = biological target: T5, OfurOR6 (Ostrinia furnacalis, UniProt M4NL06)
T5 construct: gene OR6; full-length ORF from male antennal cDNA, untagged, in PT7TS; cRNA co-injected 1:1 with OfurOrco in Xenopus oocytes; naming of Yang et al. 2015; with Odorant receptor co-receptor (Orco)
T5 sequence (M4NL06 1-421): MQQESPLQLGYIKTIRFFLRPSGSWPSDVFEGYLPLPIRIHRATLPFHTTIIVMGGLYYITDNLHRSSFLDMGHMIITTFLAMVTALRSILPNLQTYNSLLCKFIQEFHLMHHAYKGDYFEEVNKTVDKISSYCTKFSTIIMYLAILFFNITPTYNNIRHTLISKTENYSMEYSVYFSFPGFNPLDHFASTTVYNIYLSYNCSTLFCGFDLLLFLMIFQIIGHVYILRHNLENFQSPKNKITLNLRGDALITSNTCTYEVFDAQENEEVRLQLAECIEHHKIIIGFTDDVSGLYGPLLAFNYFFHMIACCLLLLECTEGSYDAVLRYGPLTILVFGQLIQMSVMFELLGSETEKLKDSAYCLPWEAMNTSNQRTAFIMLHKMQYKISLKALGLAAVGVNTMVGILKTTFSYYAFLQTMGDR
T5 sequence (A0A0E4B591 1-474 partner): T1 sequence (A0A0E4B591 1-474 partner)

Row | Compound | current at 100 μM [1] | current at 100 μM [2] [nA] | current at 100 μM [3] | current at 100 μM [4] [nA] | current at 100 μM [5] [nA] | current at 100 μM ([3]; standard order of application (response depends on order)) [nA]
1 | CCCC/C=C\CCCCCCCCOC(C)=O [Z9-14:OAc, (Z)-9-tetradecenyl acetate] | OfurOR5b broadly tuned to Z9-14:OAc, E11-14:OAc, Z11-14:OAc, E12-14:OAc, and Z12-14:OAc | 212.2 ± 46.3 | inhibited the response of Z9-14:OAc, Z11-14:OAc, and E11-14:OAc | 8.5 ± 5.2 | – | –
2 | CC/C=C\CCCCCCCCCCOC(C)=O [Z11-14:OAc, (Z)-11-tetradecenyl acetate] | OfurOR5b broadly tuned to Z9-14:OAc, E11-14:OAc, Z11-14:OAc, E12-14:OAc, and Z12-14:OAc | – | inhibited the response of Z9-14:OAc, Z11-14:OAc, and E11-14:OAc | 76.8 ± 14.1 | – | –
3 | C/C=C/CCCCCCCCCCCOC(C)=O [E12-14:OAc, E-12-tetradecenyl acetate] | OfurOR5b broadly tuned to Z9-14:OAc, E11-14:OAc, Z11-14:OAc, E12-14:OAc, and Z12-14:OAc | – | – | – | 140.7 ± 6.0 | 727.9 ± 120.4
4 | C/C=C\CCCCCCCCCCCOC(C)=O [Z12-14:OAc, (Z)-12-tetradecenyl acetate] | OfurOR5b broadly tuned to Z9-14:OAc, E11-14:OAc, Z11-14:OAc, E12-14:OAc, and Z12-14:OAc | – | 1876.8 ± 165 nA | – | – | –
5 | CC/C=C/CCCCCCCCCCOC(C)=O [E11-14:OAc, (E)-11-tetradecenyl acetate] | OfurOR5b broadly tuned to Z9-14:OAc, E11-14:OAc, Z11-14:OAc, E12-14:OAc, and Z12-14:OAc | – | inhibited the response of Z9-14:OAc, Z11-14:OAc, and E11-14:OAc | 144.6 ± 28.3 | – | –
